Assay results published in patent US20080020014A1, “Implantable devices containing nuclear receptor ligands for the treatment of vascular and related disorders” (priority 2006, published 2008).

Tests used:
PPARs = conditions: cited from earlier work
[1] = Drug-release rate of Example 3 stents in phosphate-buffered saline with 1 mass % sodium dodecyl sulfate, pH 7.4, 37° C., HPLC; type: physicochemical
Description: A drug-polymer layer comprising 17-β estradiol was applied onto a stent in the following manner. A first composition was prepared by mixing the following components: • (a) about 2.0 mass % of EVAL; and • (b) the balance, a mixture of solvents, DMAC and ethanol, in a ratio of DMAC to ethanol of about 70:30 by mass.
The first composition was applied onto the surface of a bare 13 mm TETRA stent (available from Abbott Vascular Corp.) by spraying and dried to form a primer layer. A spray coater having an EFD 7803 spray valve with 0.014 inch fan nozzle with a VALVEMATE 7040 control system (manufactured by EFD Inc. of East Providence, R.I) was used. The fan nozzel was maintained at about 60° C. with a feed pressure of about 0.2 atm (about 3 psi) and an atomization pressure of about 1.35 atm (about 20 psi). An average of about 19 micrograms (μg) per coating pass was applied and an average total of about 62 μg of the wet coating was applied.
The primer layer was baked at about 140° C. for about one hour, yielding a layer with an average total amount of solids of about 61 μg, corresponding to an average thickness on the stent of 0.65 μm. “Solids” means the amount of dry residue deposited on the stent after all volatile organic compounds (e.g., the solvent) have been removed.
A second composition was prepared by mixing the following components: • (a) about 2.0 mass % of EVAL; • (b) about 0.7 mass % 17-β estradiol; and • (c) the balance, a mixture of solvents, DMAC and ethanol, in a ratio of DMAC to ethanol of about 70:30 by mass.
The second composition was applied onto the dried primer layer to form a drug-polymer polymer layer using the same spraying technique and equipment used for the primer layer. […] of the wet coating was applied, followed by drying at about 50° C. for about 2 hours. The total amount of solids of the drug-polymer layer was about 494 μg, corresponding to an average thickness on the stent of about 5.3 μm.
A third, topcoat composition was prepared by mixing the following components: • (a) about 1.2 g of a 10 mass % solution of KYNAR-FLEX 2800 in acetone; • (b) about 1.89 g of additional acetone; • (c) about 5.94 g of cyclohexanone; and • (d) about 2.97 g of AMS FLUX REMOVER.
The topcoat composition was applied by spraying using an EFD 7803 spray valve with 0.014 inch fan nozzle to form a topcoat layer, followed by drying. The nozzle temperature was at ambient temperature with a feed pressure of about 0.2 atm (3 psi) and an atomization pressure of about 1 atm (15 psi). The dryer temperature was at ambient temperature with a dryer air pressure of about 2.7 atm (40 psi). An average of about 5 μg per coating pass was applied and an average total of about 60 μg of wet coating was applied. The topcoat layer was baked at about 50° C. for two hours, yielding a total amount of solids of about 55 μg, corresponding to a thickness of about 0.38 μm.
Three stents coated according to this example were tested for their drug-release rate. The stents were immersed in individual, stirred vessels containing a phosphate-buffered saline solution that included about 1 mass % of sodium dodecyl sulfate. […] The amount of 17-β estradiol released was determined at measured intervals of time by HPLC. […] There was an initial small burst of 17-β estradiol during the first 20 hours, after which the release rate became approximately linear. Specifically, about 18% of 17-β estradiol was released after 10 hr, 25% after 20 hr, 30% after 30 hr, 35% after 40 hr, 40% after 50 hr, 43% after 60 hr, and 45% after 70 hr.

atherosclerosis = conditions: through liver X receptors (LXR); cited from earlier work
rat carotid arteries [2] = conditions: balloon-denuded rat carotid arteries; cited from earlier work
[3] = in blood; may not happen in tissue; listed as Tazarotene; cited from earlier work
[4] = system: retinoic acid receptors (RARs); conditions: cited from earlier work
[5] = system: collagenase gene expression at AP-1 binding sites; conditions: cited from earlier work
[6] = system: vascular smooth muscle cell; conditions: cited from earlier work
rat carotid arteries [7] = conditions: after balloon injury to rat carotid arteries; cited from earlier work
rabbit femoral arteries = conditions: 28 days after angioplasty; cited from earlier work

Compound: CCCCC/C=C\C/C=C\C=C\[C@H](O)C/C=C\CCCC(=O)O [8-(R) HETE, 8-(R)-hydroxyeicosatetaenoic acid]
- PPAR subtypes activated (PPARs): α, γ

Compound: CCCCCC#CCC#CCC#CCC#CCCCC(=O)O [ETYA, eicosatetraynoic acid]
- PPAR subtypes activated (PPARs): α

Compound: CCCCCC(=O)/C=C/C=C\CCCCCCCC(=O)O [13-oxo ODE]
- PPAR subtypes activated (PPARs): γ

Compound: CCC/C=C/C/C=C/C=C/C=N/NN=O [Triacsin C]
- PPAR subtypes activated (PPARs): α

Compound: CCCCC/C=C/C=C1/C(=O)C=C[C@@H]1C/C=C\CCCC(=O)O [15d-PGJ2, 15-deoxy-Δ^12,14-PGJ2]
- PPAR subtypes activated (PPARs): α, δ, γ

Compound: CCCCCC=CC=CC(=O)CCCCCCCC(=O)O [9-oxo ODE, 9-oxo octadecadienoic acid]
- PPAR subtypes activated (PPARs): γ

Compound: CCC=CCC=CCC=CC=CC(O)CC=CCCCC(=O)O (stereo not shown) [8-HEPE, 8-hydroxyeicosapentaenoic acid]
- PPAR subtypes activated (PPARs): α

Compound: CCCCC[C@H](O)/C=C/C1=C(C/C=C\CCCC(=O)O)C(=O)CC1 [PGB2]
- PPAR subtypes activated (PPARs): α, δ, γ

Compound: CCCCCCCCCCCCCCSCC(=O)O [tetradecythioacetate]
- PPAR subtypes activated (PPARs): α

Compound: CCCCCCCCCCCCCCC(Br)C(=O)O (stereo not shown) [2-bromopalmitate]
- PPAR subtypes activated (PPARs): α, δ

Compound: CCCCCCCCCSCC(=O)O [nonythioacetic acid]
- PPAR subtypes activated (PPARs): α

Compound: CCCCC[C@@H](/C=C/C=C\CCCCCCCC(=O)O)OO [13-(S) HpODE, 13-(S) hydroperoxyoctadecadienoic acid]
- PPAR subtypes activated (PPARs): γ

Compound: C[C@]12CC[C@@H]3c4ccc(O)cc4CC[C@H]3[C@@H]1CC[C@@H]2O [17-β estradiol]
- 17-β estradiol released ([1]; after 10 hr, EVAL drug-polymer layer, KYNAR-FLEX 2800 topcoat): about 18%
- 17-β estradiol released ([1]; after 20 hr): ~25%
- 17-β estradiol released ([1]; after 30 hr): ~30%
- 17-β estradiol released ([1]; after 40 hr): ~35%
- 17-β estradiol released ([1]; after 50 hr): ~40%
- 17-β estradiol released ([1]; after 60 hr): ~43%
- 17-β estradiol released ([1]; after 70 hr): ~45%

Compound: CCCCC[C@H](O)/C=C/[C@H]1C(=O)C=C[C@@H]1C/C=C\CCCC(=O)O [PGJ2, prostaglandin J2]
- PPAR subtypes activated (PPARs): α, δ, γ

Compound: CCCCC/C=C\C/C=C\C/C=C\C/C=C\CCCC(=O)O [arachidonic acid]
- PPAR subtypes activated (PPARs): α, δ, γ

Compound: CCCCC/C=C\C[C@H](O)/C=C/C=C\C/C=C\CCCC(=O)O [12-HETE]
- PPAR subtypes activated (PPARs): α

Compound: CCCCC/C=C\C[C@@H](O)/C=C/C=C/C=C\[C@@H](O)CCCC(=O)O [LTB4]
- PPAR subtypes activated (PPARs): α

Compound: CCCCCCCCCCCCCCC1(C(=O)O)CO1 (stereo not shown) [tetradecylglycidic acid]
- PPAR subtypes activated (PPARs): α, δ

Compound: CC(C)(Sc1ccc(CCN(CCCCC2CCCCC2)C(=O)NC2CCCCC2)cc1)C(=O)O [GW-7647]
- atherosclerosis and formation of microphage-forming cells (atherosclerosis): inhibited
- PPAR subtypes activated (PPARs): α

Compound: CCCCC[C@H](O)/C=C/C=C\C/C=C\C/C=C\CCCC(=O)O [15-HETE]
- PPAR subtypes activated (PPARs): γ

Compound: CC1=C(/C=C/C(C)=C/C=C/C(C)=C\C(=O)O)C(C)(C)CCC1 [13-cis retinoic acid]
- intimal thickening (rat carotid arteries [2]): suppressed
- vessel remodeling (rat carotid arteries [2]): increased

Compound: CCCCC/C=C\C/C=C\C=C\[C@@H](O)C/C=C\CCCC(=O)O [8-(S) HETE]
- PPAR subtypes activated (PPARs): α, γ

Compound: CC/C=C\C/C=C\C/C=C\C/C=C\C/C=C\C/C=C\CCC(=O)O [docahexanoic acid]
- PPAR subtypes activated (PPARs): α, δ, γ

Compound: Cc1cccc(Nc2cc(Cl)nc(SCC(=O)O)n2)c1C [WY-14643]
- PPAR subtypes activated (PPARs): α, δ, γ

Compound: 9-(R/S) hydroxyoctadecadienoic acid [9-(R/S) HODE]
- PPAR subtypes activated (PPARs): γ

Compound: CCOC(=O)c1ccc(C#Cc2ccc3c(c2)C(C)(C)CCS3)nc1 [tazarotene]
- Pharmacokinetics: de-esterification / metabolism to tazarotenic acid [3]: rapidly metabolized to tazarotenic acid
- Receptor specificity [4]: specific for retinoic acid receptors (RARs)

Compound: CCCCC[C@H](O)/C=C/[C@@H]1[C@H]2C/C(=C/CCCC(=O)O)O[C@H]2C[C@H]1O [prostacyclin (PGI2), prostacyclin]
- PPAR subtypes activated (PPARs): α, δ, γ

Compound: CCCCC/C=C\C/C=C\CCCCCCCC(=O)O [linoleic acid]
- PPAR subtypes activated (PPARs): α, δ

Compound: CC1=C(/C=C/C(C)=C/C=C/C(C)=C/C(=O)O)C(C)(C)CCC1 [all-trans retinoic acid]
- collagenase gene expression at AP-1 binding sites [5]: inhibited
- vascular smooth muscle cell proliferation [6]: inhibited
- favorable geometric remodeling (rat carotid arteries [7]): promoted
- neointimal formation (rat carotid arteries [7]): reduced
- intimal thickening (rat carotid arteries [2]): suppressed
- vessel remodeling (rat carotid arteries [2]): increased

Compound: CCCCC[C@H](O)/C=C/C=C\CCCCCCCC(=O)O (racemic) [13-(R/S) HODE]
- PPAR subtypes activated (PPARs): γ

Compound: CC1=C(/C=C/C(C)=C/C=C/C(C)=C/CO)C(C)(C)CCC1 [retinol]
- internal and external elastic lamina (rabbit femoral arteries): larger

Compound: clofibrates
- PPAR subtypes activated (PPARs): α, δ, γ
